Reference: US20060069132A1, “Azolecarboxamide herbicides” (priority 2004, published 2006)

Legend:
barnyardgrass [1] = assay: Test B pre-/postemergence herbicide test; type: in vivo, Echinochloa crus-galli; details: for Barnyardgrass plant response rating: Postemergence, scale 0 (no effect) to 100 (complete control)
Method in brief: (§1)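 Response was scored visually 13 to 15 days after treatment against untreated greenhouse controls, 0 meaning no effect and 100 complete control. Formulations (solvent mixture plus surfactant) went onto soil after planting, onto foliage of 1- to 4-leaf plants, and onto 2-leaf plants in a flooded paddy set including rice and barnyardgrass.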

Surinam grass = assay: Test B pre-/postemergence herbicide test; type: in vivo, Urochloa decumbens
Method in brief: (§2)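 Flooded paddy rice and barnyardgrass were treated at the 2-leaf stage; upland plantings received compound either on sown seed or on 1- to 4-leaf seedlings. All were kept 13–15 days in a greenhouse and scored visually, 0–100, relative to untreated plants.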

cocklebur = assay: Test B pre-/postemergence herbicide test; type: in vivo, Xanthium strumarium
Method in brief: as §1

corn = assay: Test B pre-/postemergence herbicide test; type: in vivo, Zea mays
Method in brief: as §2

large crabgrass = assay: Test B pre-/postemergence herbicide test; type: in vivo, Digitaria sanguinalis
Method in brief: as §2

giant foxtail = assay: Test B pre-/postemergence herbicide test; type: in vivo, Setaria faberi
Method in brief: as §2

lambsquarters = assay: Test B pre-/postemergence herbicide test; type: in vivo, Chenopodium album
Method in brief: as §2

morningglory = assay: Test B pre-/postemergence herbicide test; type: in vivo, Ipomoea coccinea
Method in brief: as §1

pigweed = assay: Test B pre-/postemergence herbicide test; type: in vivo, Amaranthus retroflexus
Method in brief: as §2

velvetleaf = assay: Test B pre-/postemergence herbicide test; type: in vivo, Abutilon theophrasti
Method in brief: as §2

blackgrass [2] = assay: Test B postemergence herbicide test; type: in vivo, Alopecurus myosuroides
Method in brief: (§3)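 Visual control ratings, 0–100 versus untreated controls, taken after 13 to 15 days in the greenhouse. Blackgrass received a postemergence spray at the 1- to 4-leaf stage (2–18 cm); ducksalad, umbrella sedge and barnyardgrass were flooded-paddy treated at 2 leaves.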

wheat [3] = assay: Test B postemergence herbicide test; type: in vivo, Triticum aestivum; design: key to Wheat plant response rating: 0 = no effect, 100 = complete control
Method in brief: (§4)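 Plants grow to 1- to 4-leaf stage (2–18 cm) for postemergence spraying, or to 2-leaf stage for the paddy test. Formulated compound is applied. Greenhouse holding lasts 13–15 days. Response is scored visually relative to controls, 0 no effect to 100 complete control; a dash means no result.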

wild oat [4] = assay: Test B postemergence herbicide test; type: in vivo, Avena fatua
Method in brief: as §4

rice = assay: Test B flooded paddy test; type: in vivo, Oryza sativa; details: 1000 g ai/ha, scale 0 to 100 (0 no effect, 100 complete control)
Method in brief: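 After treating 2-leaf paddy plants or 2–18 cm postemergence plants (1 to 4 leaves) with formulated chemical, researchers kept them in a greenhouse for 13–15 days. Effects were judged visually versus controls: 0 indicates none, 100 total control.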

[5] = test system: small flower umbrella sedge; assay: Test B flooded paddy test; type: in vivo, Cyperus difformis; details: 1000 g ai/ha, scale 0 to 100 (0 no effect, 100 complete control)
Method in brief: as §3

ducksalad = assay: Test B flooded paddy test; type: in vivo, Heteranthera limosa; details: 1000 g ai/ha, scale 0 to 100 (0 no effect, 100 complete control)
Method in brief: as §3

barnyardgrass [6] = assay: Test B flooded paddy test; type: in vivo, Echinochloa crus-galli; details: 1000 g ai/ha, scale 0 to 100 (0 no effect, 100 complete control)
Method in brief: as §3

winter barley = assay: Test C postemergence herbicide test; type: in vivo, Hordeum vulgare
Method in brief: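 Plants were grown to the 1- to 4-leaf stage (2–18 cm) and then treated postemergence, or grown to the 2-leaf stage for the flooded paddy test. They were held in a greenhouse for 12 to 14 days and then scored by eye against controls, where 0 is no effect and 100 is complete control.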

blackgrass [7] = assay: Test C postemergence herbicide test; type: in vivo, Alopecurus myosuroides
Method in brief: (§5)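 Visual rating, 0 (no effect) to 100 (complete control), vs. controls at 12–14 d in greenhouse. Postemergence: 1–4-leaf plants, 2–18 cm. Paddy: flooded, barnyardgrass at 2-leaf stage.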

canarygrass = assay: Test C postemergence herbicide test; type: in vivo, Phalaris minor
Method in brief: as §5

downy bromegrass = assay: Test C postemergence herbicide test; type: in vivo, Bromus tectorum
Method in brief: as §5

green foxtail = assay: Test C postemergence herbicide test; type: in vivo, Setaria viridis
Method in brief: as §5

Italian ryegrass = assay: Test C postemergence herbicide test; type: in vivo, Lolium multiflorum
Method in brief: as §5

wheat [8] = assay: Test C postemergence herbicide test; type: in vivo, Triticum aestivum
Method in brief: as §5

wild oat [9] = assay: Test C postemergence herbicide test; type: in vivo, Avenafatua
Method in brief: as §5

windgrass = assay: Test C postemergence herbicide test; type: in vivo, Apera spica-venti
Method in brief: as §5

[10] = 125 g ai/ha, 0 is no effect, 100 is complete control, preemergence
[11] = Postemergence, 500 g ai/ha, scale 0 (no effect) to 100 (complete control)
[12] = postemergence, 125 g ai/ha, scale 0 to 100
[13] = Postemergence, 500 g ai/ha, scale 0 to 100
[14] = Postemergence, 250 g ai/ha, scale 0 to 100, 0 no effect, 100 complete control
[15] = postemergence, 62 g ai/ha, scale 0 to 100
[16] = Postemergence, 500 g ai/ha, scale 0 to 100, 0 no effect, 100 complete control

C=CCN(CC=C)C(=O)c1cccc(NC(=O)c2nn(C(C)(C)C)nc2CC)c1 [Compound 415]
Plant response rating (0 to 100 scale), Barnyardgrass (barnyardgrass [1]; [10]): 10 | Barnyardgrass plant response rating (barnyardgrass [1]; 125 g ai/ha): 20 | Barnyardgrass plant response rating (barnyardgrass [1]; 500 g ai/ha): 20 | Plant response rating (0 to 100 scale), Surinam Grass (Surinam grass; [10]): 20 | Surinam Grass plant response rating (Surinam grass; [11]): 30 | Surinam Grass plant response rating (Surinam grass; [12]): 10 | Plant response rating (0 to 100 scale), Cocklebur (cocklebur; [10]): 0 | Cocklebur plant response rating (cocklebur; [11]): 50 | Cocklebur plant response rating (cocklebur; [12]): 30 | Plant response rating (0 to 100 scale), Corn (corn; [10]): 0 | Corn plant response rating (corn; [11]): 20 | Corn plant response rating (corn; [12]): 20 | Plant response rating (0 to 100 scale), Crabgrass, Large (large crabgrass; [10]): 70 | Crabgrass, Large plant response rating (large crabgrass; [11]): 50 | Crabgrass, Large plant response rating (large crabgrass; [12]): 20 | Plant response rating (0 to 100 scale), Foxtail, Giant (giant foxtail; [10]): 20 | Foxtail, Giant plant response rating (giant foxtail; [11]): 40 | Foxtail, Giant plant response rating (giant foxtail; [12]): 20 | Plant response rating (0 to 100 scale), Lambsquarters (lambsquarters; [10]): 50 | Lambsquarters plant response rating (lambsquarters; [11]): 80 | Lambsquarters plant response rating (lambsquarters; [12]): 70 | Plant response rating (0 to 100 scale), Morningglory (morningglory; [10]): 0 | Morningglory plant response rating (morningglory; [11]): 40 | Morningglory plant response rating (morningglory; [12]): 10 | Plant response rating (0 to 100 scale), Pigweed (pigweed; [10]): 60 | Pigweed plant response rating (pigweed; [11]): 90 | Pigweed plant response rating (pigweed; [12]): 70 | Plant response rating (0 to 100 scale), Velvetleaf (velvetleaf; [10]): 20 | Velvetleaf plant response rating (velvetleaf; [11]): 50 | Velvetleaf plant response rating (velvetleaf; [12]): 30 | Blackgrass plant response rating (blackgrass [2]; [11]): 40 | Blackgrass plant response rating (blackgrass [2]; [12]): 30 | Wheat plant response rating (wheat [3]; 500 g ai/ha, scale 0 to 100, 0 no effect, 100 complete control, preemergence): 30 | Wheat plant response rating (wheat [3]; [11]): 30 | Wheat plant response rating (wheat [3]; [12]): 20 | Oat, Wild plant response rating (wild oat [4]; [11]): 40 | Oat, Wild plant response rating (wild oat [4]; [12]): 30 | Rice plant response rating (rice): 50 | Sedge, Umbrella plant response rating [5]: 80 | Ducksalad plant response rating (ducksalad): 80 | Barnyardgrass plant response rating (barnyardgrass [6]): 60 | Barley, Winter plant response rating (winter barley; [13]): 45 | Plant response rating, Barley, Winter (winter barley; Postemergence, 125 g ai/ha, scale 0 to 100, 0 no effect, 100 complete control): 35 | Plant response rating, Barley, Winter (winter barley; [14]): 35 | Plant response rating, Barley, Winter (winter barley; postemergence, 62 g ai/ha, scale 0 to 100 (0 no effect, 100 complete control)): 35 | Blackgrass plant response rating (blackgrass [7]; [13]): 65 | Plant response rating, Blackgrass (blackgrass [7]; [14]): 60 | Plant response rating, Blackgrass (blackgrass [7]; [12]): 60 | Plant response rating, Blackgrass (blackgrass [7]; [15]): 50 | Plant response rating, Canarygrass (canarygrass; [14]): 55 | Plant response rating, Canarygrass (canarygrass; [16]): 65 | Plant response rating, Canarygrass (canarygrass; [12]): 50 | Plant response rating, Canarygrass (canarygrass; [15]): 45 | Plant response rating, Bromegrass, Downy (downy bromegrass; [14]): 60 | Plant response rating, Bromegrass, Downy (downy bromegrass; [16]): 65 | Plant response rating, Bromegrass, Downy (downy bromegrass; [12]): 60 | Plant response rating, Bromegrass, Downy (downy bromegrass; [15]): 60 | Plant response rating, Foxtail, Green (green foxtail; [14]): 50 | Plant response rating, Foxtail, Green (green foxtail; [16]): 60 | Plant response rating, Foxtail, Green (green foxtail; [12]): 50 | Plant response rating, Foxtail, Green (green foxtail; [15]): 45 | Plant response rating, Ryegrass, Italian (Italian ryegrass; [16]): 45 | Plant response rating, Ryegrass, Italian (Italian ryegrass; [12]): 40 | Plant response rating, Ryegrass, Italian (Italian ryegrass; [15]): 30 | Plant response rating, Wheat (wheat [8]; [16]): 30 | Plant response rating, Wheat (wheat [8]; [12]): 25 | Plant response rating, Wheat (wheat [8]; [15]): 20 | Plant response rating, Oat, Wild (wild oat [9]; [16]): 55 | Plant response rating, Oat, Wild (wild oat [9]; [12]): 45 | Plant response rating, Oat, Wild (wild oat [9]; [15]): 40 | Plant response rating, Windgrass (windgrass; [16]): 65 | Plant response rating, Windgrass (windgrass; [12]): 50 | Plant response rating, Windgrass (windgrass; [15]): 50
